How the values were obtained:
lambsquarters = experiment: Test B preemergence/postemergence greenhouse plant response rating 0 to 10; assay type: in vivo, Chenopodium album; details: 0 to 10 scale
Method in brief: (§1)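 Planted seeds are treated preemergence with compound dissolved in a non-phytotoxic solvent, while postemergence applications go onto plants of two to eighteen cm. Plants stay in the greenhouse twelve to sixteen days and are then rated visually relative to controls.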

rice = experiment: as above; assay type: in vivo, Oryza sativa; details: 0 to 10 scale
Method in brief: as §1

soybean = experiment: as above; assay type: in vivo, Glycine max; details: 0 to 10 scale
Method in brief: as §1

wheat = experiment: as above; assay type: in vivo, Triticum aestivum; details: 0 to 10 scale
Method in brief: as §1

wild buckwheat [1] = experiment: as above; assay type: in vivo, Polygonum convolvulus; details: 0 to 10 scale
Method in brief: as §1

wild oat = experiment: as above; assay type: in vivo, Avena fatua; details: POSTEMERGENCE, 0 to 10 scale
Method in brief: as §1

blackgrass = experiment: Test C preemergence/postemergence greenhouse plant response rating 0 to 100; assay type: in vivo, Alopecurus myosuroides; details: POSTEMERGENCE; for Plant response rating, Blackgrass: 0 to 100 scale
Method in brief: (§2)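 Compounds in non-phytotoxic solvent applied preemergence to sandy loam one day after planting, postemergence at the 1–4 leaf stage, or to ~2.5 cm floodwater over silt loam.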

downy brome = experiment: as above; assay type: in vivo, Bromus tectorum; details: POSTEMERGENCE; for Plant response rating Downy Brome: 0 to 100 scale
Method in brief: as §2

sorghum = experiment: as above; assay type: in vivo, Sorghum bicolor; details: POSTEMERGENCE; for Plant response rating, Sorghum: 0 to 100 scale
Method in brief: as §2

sugar beet = experiment: as above; assay type: in vivo, Beta vulgaris; details: POSTEMERGENCE; for Plant response rating, Sugar beet: 0 to 100 scale
Method in brief: as §2

wild buckwheat [2] = experiment: as above; assay type: in vivo, Polygonum convolvulus; details: POSTEMERGENCE; for Plant response rating, Wild buckwheat: 0 to 100 scale
Method in brief: as §2

barnyardgrass = experiment: Test C flood test plant response rating 0 to 100; assay type: in vivo, Echinochloa crus-galli; details: for Plant response rating (0 to 100), Barnyardgrass: under POSTEMERGENCE head (flood test species); for Plant response rating, Barnyardgrass: flood test species listed under POSTEMERGENCE, 0 to 100 scale
Method in brief: as §2

peanut = experiment: Test G preemergence/postemergence greenhouse plant response rating 0 to 100; assay type: in vivo, Arachis hypoagaea; details: 0 to 100 scale
Description: (§3) Seeds, rhizomes, or plant parts of alfalfa (Medicago ativa), annual bluegrass (Poa annua), bermudagrass (Cynodon dactylon), broadleaf signalgrass (Brachiaria plantaginea), common purslane (Portulaca oleracea), common ragweed (Ambrosia elatior), […] (Paspalum dilatatum), goosegrass (Eleusine indica), guineagrass (Panicum maximum), […] exaltata), johnsongrass (Sorghum halepense), large crabgrass (Digitaria sanguinalis), peanut (Arachis hypoagaea), pitted morningglory (Ipomoea lacunosa), purple nutsedge (Cyperus rotundus), sandbur (Cenchrus echinatus), smooth crabgrass (Digitaria ischaemum) and yellow nutsedge (Cyperus esculentus) were planted into greenhouse pots containing greenhouse planting medium. Each pot contained only one plant species. The test compound was dissolved in a non-phytotoxic solvent and applied preemergence and/or postemergence to the plants. Preemergence applications were made within one day of planting the seeds or plant parts. Postemergence applications were applied when the plants were in the two to four leaf stage (three to twenty cm). Test chemicals were dissolved in a non-phytotoxic solvent and applied preemergence and postemergence to the plants. Untreated control plants and treated plants were placed in the greenhouse and visually evaluated for injury at 13 to 21 days after herbicide application. […] A dash (-) response indicates no test result.

yellow nutsedge = experiment: as above; assay type: in vivo, Cyperus esculentus; details: Rate 125 g/ha, 0 to 100 scale
Description: as §3

Structure (SMILES): COc1cc(-c2nn3c(c2Cl)CCCC3)c(F)cc1Cl [Compound 29]
- Plant response rating, Lambsquarter (lambsquarters; POSTEMERGENCE, Rate 50 g/ha): 10
- Plant response rating, Lambsquarter (lambsquarters; PREEMERGENCE, Rate 50 g/ha): 10
- Plant response rating, Lambsquarter (lambsquarters; Rate 200 g/ha, POSTEMERGENCE): 10
- Plant response rating, Lambsquarter (lambsquarters; Rate 200 g/ha, PREEMERGENCE): 10
- Plant response rating, Rice (rice; POSTEMERGENCE, Rate 50 g/ha): 4
- Plant response rating, Rice (rice; PREEMERGENCE, Rate 50 g/ha): 0
- Plant response rating, Rice (rice; Rate 200 g/ha, POSTEMERGENCE): 7
- Plant response rating, Rice (rice; Rate 200 g/ha, PREEMERGENCE): 2
- Plant response rating, Soybean (soybean; POSTEMERGENCE, Rate 50 g/ha): 8
- Plant response rating, Soybean (soybean; PREEMERGENCE, Rate 50 g/ha): 1
- Plant response rating, Soybean (soybean; Rate 200 g/ha, POSTEMERGENCE): 9
- Plant response rating, Soybean (soybean; Rate 200 g/ha, PREEMERGENCE): 5
- Plant response rating, Wheat (wheat; POSTEMERGENCE, Rate 50 g/ha): 4
- Plant response rating, Wheat (wheat; PREEMERGENCE, Rate 50 g/ha): 0
- Plant response rating, Wheat (wheat; Rate 200 g/ha, POSTEMERGENCE): 6
- Plant response rating, Wheat (wheat; Rate 200 g/ha, PREEMERGENCE): 4
- Plant response rating, Wild buckwheat (wild buckwheat [1]; POSTEMERGENCE, Rate 50 g/ha): 10
- Plant response rating, Wild buckwheat (wild buckwheat [1]; PREEMERGENCE, Rate 50 g/ha): 8
- Plant response rating, Wild buckwheat (wild buckwheat [1]; Rate 200 g/ha, POSTEMERGENCE): 10
- Plant response rating, Wild buckwheat (wild buckwheat [1]; Rate 200 g/ha, PREEMERGENCE): 10
- Plant response rating, Wild oat (wild oat; Rate 50 g/ha): 5
- Plant response rating, Wild oat (wild oat; Rate 200 g/ha): 7
- Plant response rating, Blackgrass (blackgrass; 62 g/ha): 50
- Plant response rating, Blackgrass (blackgrass; 250 g/ha): 90
- Plant response rating (0 to 100), Blackgrass (blackgrass; Rate 4 g/ha): 20
- Plant response rating (0 to 100), Blackgrass (blackgrass; Rate 16 g/ha): 30
- Plant response rating Downy Brome (downy brome; 62 g/ha): 80
- Plant response rating Downy Brome (downy brome; 250 g/ha): 95
- Plant response rating (0 to 100), Downy Brome (downy brome; Rate 4 g/ha): 20
- Plant response rating (0 to 100), Downy Brome (downy brome; Rate 16 g/ha): 60
- Plant response rating, Sorghum (sorghum; 62 g/ha): 20
- Plant response rating, Sorghum (sorghum; 250 g/ha): 50
- Plant response rating (0 to 100), Sorghum (sorghum; Rate 4 g/ha): 0
- Plant response rating (0 to 100), Sorghum (sorghum; Rate 16 g/ha): 0
- Plant response rating, Sugar beet (sugar beet; 62 g/ha): 100
- Plant response rating, Sugar beet (sugar beet; 250 g/ha): 100
- Plant response rating (0 to 100), Sugar beet (sugar beet; Rate 16 g/ha): 90
- Plant response rating, Wild buckwheat (wild buckwheat [2]; 62 g/ha): 100
- Plant response rating, Wild buckwheat (wild buckwheat [2]; 250 g/ha): 100
- Plant response rating (0 to 100), Wild buckwheat (wild buckwheat [2]; Rate 4 g/ha): 80
- Plant response rating (0 to 100), Wild buckwheat (wild buckwheat [2]; Rate 16 g/ha): 90
- Plant response rating (0 to 100), Barnyardgrass (barnyardgrass; Rate 4 g/ha): 100
- Plant response rating (0 to 100), Barnyardgrass (barnyardgrass; Rate 16 g/ha): 100
- Plant response rating, Barnyardgrass (barnyardgrass; 62 g/ha): 100
- Plant response rating, Barnyardgrass (barnyardgrass; 250 g/ha): 100
- Plant response rating, Peanuts (peanut; POSTEMERGENCE, Rate 125 g/ha): 0
- Plant response rating, Peanuts (peanut; POSTEMERGENCE, Rate 250 g/ha): 0
- Plant response rating, Peanuts (peanut; PREEMERGENCE, Rate 125 g/ha): 0
- Plant response rating, Peanuts (peanut; PREEMERGENCE, Rate 250 g/ha): 0
- Plant response rating, Yellow Nutsedge (yellow nutsedge; POSTEMERGENCE): 0
- Plant response rating, Yellow Nutsedge (yellow nutsedge; PREEMERGENCE): 0

Structure (SMILES): CC(C)COc1cc(-c2nn3c(c2Cl)CCCC3)c(F)cc1Cl [Compound 30]
- Plant response rating, Lambsquarter (lambsquarters; POSTEMERGENCE, Rate 50 g/ha): 10
- Plant response rating, Lambsquarter (lambsquarters; PREEMERGENCE, Rate 50 g/ha): 8
- Plant response rating, Lambsquarter (lambsquarters; Rate 200 g/ha, POSTEMERGENCE): 10
- Plant response rating, Lambsquarter (lambsquarters; Rate 200 g/ha, PREEMERGENCE): 10
- Plant response rating, Rice (rice; POSTEMERGENCE, Rate 50 g/ha): 5
- Plant response rating, Rice (rice; PREEMERGENCE, Rate 50 g/ha): 0
- Plant response rating, Rice (rice; Rate 200 g/ha, POSTEMERGENCE): 5
- Plant response rating, Rice (rice; Rate 200 g/ha, PREEMERGENCE): 2
- Plant response rating, Soybean (soybean; POSTEMERGENCE, Rate 50 g/ha): 7
- Plant response rating, Soybean (soybean; PREEMERGENCE, Rate 50 g/ha): 0
- Plant response rating, Soybean (soybean; Rate 200 g/ha, POSTEMERGENCE): 2
- Plant response rating, Soybean (soybean; Rate 200 g/ha, PREEMERGENCE): 2
- Plant response rating, Wheat (wheat; POSTEMERGENCE, Rate 50 g/ha): 4
- Plant response rating, Wheat (wheat; PREEMERGENCE, Rate 50 g/ha): 0
- Plant response rating, Wheat (wheat; Rate 200 g/ha, POSTEMERGENCE): 5
- Plant response rating, Wheat (wheat; Rate 200 g/ha, PREEMERGENCE): 2
- Plant response rating, Wild buckwheat (wild buckwheat [1]; POSTEMERGENCE, Rate 50 g/ha): 10
- Plant response rating, Wild buckwheat (wild buckwheat [1]; PREEMERGENCE, Rate 50 g/ha): 0
- Plant response rating, Wild buckwheat (wild buckwheat [1]; Rate 200 g/ha, POSTEMERGENCE): 10
- Plant response rating, Wild buckwheat (wild buckwheat [1]; Rate 200 g/ha, PREEMERGENCE): 6
- Plant response rating, Wild oat (wild oat; Rate 50 g/ha): 5
- Plant response rating, Wild oat (wild oat; Rate 200 g/ha): 6
- Plant response rating, Blackgrass (blackgrass; 62 g/ha): 60
- Plant response rating, Blackgrass (blackgrass; 250 g/ha): 80
- Plant response rating (0 to 100), Blackgrass (blackgrass; Rate 4 g/ha): 10
- Plant response rating (0 to 100), Blackgrass (blackgrass; Rate 16 g/ha): 20
- Plant response rating Downy Brome (downy brome; 62 g/ha): 60
- Plant response rating Downy Brome (downy brome; 250 g/ha): 90
- Plant response rating (0 to 100), Downy Brome (downy brome; Rate 4 g/ha): 20
- Plant response rating (0 to 100), Downy Brome (downy brome; Rate 16 g/ha): 40
- Plant response rating, Sorghum (sorghum; 62 g/ha): 20
- Plant response rating, Sorghum (sorghum; 250 g/ha): 40
- Plant response rating (0 to 100), Sorghum (sorghum; Rate 4 g/ha): 0
- Plant response rating (0 to 100), Sorghum (sorghum; Rate 16 g/ha): 0
- Plant response rating, Sugar beet (sugar beet; 62 g/ha): 100
- Plant response rating, Sugar beet (sugar beet; 250 g/ha): 100
- Plant response rating (0 to 100), Sugar beet (sugar beet; Rate 4 g/ha): 80
- Plant response rating (0 to 100), Sugar beet (sugar beet; Rate 16 g/ha): 100
- Plant response rating, Wild buckwheat (wild buckwheat [2]; 62 g/ha): 80
- Plant response rating, Wild buckwheat (wild buckwheat [2]; 250 g/ha): 100
- Plant response rating (0 to 100), Wild buckwheat (wild buckwheat [2]; Rate 4 g/ha): 50
- Plant response rating (0 to 100), Wild buckwheat (wild buckwheat [2]; Rate 16 g/ha): 70
- Plant response rating (0 to 100), Barnyardgrass (barnyardgrass; Rate 4 g/ha): 85
- Plant response rating (0 to 100), Barnyardgrass (barnyardgrass; Rate 16 g/ha): 95
- Plant response rating, Barnyardgrass (barnyardgrass; 62 g/ha): 100
- Plant response rating, Barnyardgrass (barnyardgrass; 250 g/ha): 100
- Plant response rating, Peanuts (peanut; POSTEMERGENCE, Rate 125 g/ha): 0
- Plant response rating, Peanuts (peanut; POSTEMERGENCE, Rate 250 g/ha): 0
- Plant response rating, Peanuts (peanut; PREEMERGENCE, Rate 125 g/ha): 0
- Plant response rating, Peanuts (peanut; PREEMERGENCE, Rate 250 g/ha): 0
- Plant response rating, Yellow Nutsedge (yellow nutsedge; POSTEMERGENCE): 0
- Plant response rating, Yellow Nutsedge (yellow nutsedge; PREEMERGENCE): 0

— patent US6358885B1, “Substituted phenylheterocyclic herbicides” (Mississippi State University, priority 1992, dated 2002)
